{
  "source": "patent US20120010229A1",
  "about": "“THERAPEUTIC REGIMENS FOR HEDGEHOG-ASSOCIATED CANCERS” (priority 2010, published 2012)",
  "key": {"[1]": {"tested_on": "Sonic Hedgehog (SHH) ligand expression in bladder cancer cells", "assay": "Sonic Hedgehog ligand expression in bladder cancer cells after chemotherapy", "type": "cell-based, human", "conditions": "over time after chemotherapy", "excerpt": "Similar results showing increases in Hh ligand expression in response to chemotherapy have been found in other tumor cells. For example, chemotherapy increases in Sonic Hedgehog (SHH) ligand expression in bladder cancer cells are depicted in FIGS. 4A-4D."}, "[2]": {"target": "Pgp (Homo sapiens, UniProt P08183)", "sequence (P08183 whole entry)": "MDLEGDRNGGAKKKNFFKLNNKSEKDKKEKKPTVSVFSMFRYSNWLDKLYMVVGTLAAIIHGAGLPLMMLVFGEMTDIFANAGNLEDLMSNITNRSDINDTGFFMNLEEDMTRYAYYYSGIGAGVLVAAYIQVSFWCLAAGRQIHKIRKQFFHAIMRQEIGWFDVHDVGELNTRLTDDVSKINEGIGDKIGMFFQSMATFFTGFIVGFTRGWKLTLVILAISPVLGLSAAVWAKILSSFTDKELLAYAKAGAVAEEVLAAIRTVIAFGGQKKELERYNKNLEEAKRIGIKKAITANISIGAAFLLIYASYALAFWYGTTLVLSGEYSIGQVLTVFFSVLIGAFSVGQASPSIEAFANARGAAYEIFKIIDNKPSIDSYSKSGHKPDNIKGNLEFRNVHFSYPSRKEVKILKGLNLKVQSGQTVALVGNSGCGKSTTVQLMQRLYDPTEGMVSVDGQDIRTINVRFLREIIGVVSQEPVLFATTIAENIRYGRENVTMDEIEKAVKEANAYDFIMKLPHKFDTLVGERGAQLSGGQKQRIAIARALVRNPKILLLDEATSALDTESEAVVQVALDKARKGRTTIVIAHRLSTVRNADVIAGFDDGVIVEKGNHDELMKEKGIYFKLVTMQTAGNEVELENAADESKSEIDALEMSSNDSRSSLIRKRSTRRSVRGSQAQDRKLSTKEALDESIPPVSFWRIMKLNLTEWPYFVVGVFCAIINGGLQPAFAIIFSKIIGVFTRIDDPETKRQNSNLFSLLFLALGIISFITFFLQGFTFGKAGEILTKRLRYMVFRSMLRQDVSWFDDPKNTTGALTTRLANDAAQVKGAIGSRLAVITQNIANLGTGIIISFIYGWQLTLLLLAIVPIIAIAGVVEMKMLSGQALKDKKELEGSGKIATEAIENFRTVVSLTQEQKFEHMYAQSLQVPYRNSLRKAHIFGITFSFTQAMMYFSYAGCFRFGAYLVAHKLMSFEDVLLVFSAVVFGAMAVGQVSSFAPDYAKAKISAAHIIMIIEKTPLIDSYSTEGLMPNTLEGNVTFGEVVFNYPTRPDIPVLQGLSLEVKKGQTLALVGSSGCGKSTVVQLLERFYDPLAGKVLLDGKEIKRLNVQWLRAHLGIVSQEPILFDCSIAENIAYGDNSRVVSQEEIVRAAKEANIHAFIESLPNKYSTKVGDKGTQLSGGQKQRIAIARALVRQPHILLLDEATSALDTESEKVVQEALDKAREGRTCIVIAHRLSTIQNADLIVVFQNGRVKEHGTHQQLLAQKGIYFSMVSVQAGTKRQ", "conditions": "cited from earlier work"}, "[3]": {"tested_on": "hedgehog pathway", "assay": "C3H10T1/2 alkaline phosphatase assay (Shh-dependent osteoblast differentiation)", "type": "cell-based", "conditions": "Mus musculus, C3H 10T1/2; sonic hedgehog 250 ng/ml; AP normalized to total protein; read-out: IC50, antagonist of the hedgehog pathway (AP activity)", "excerpt": "Cancer cell killing by inhibition of a component of the hedgehog pathway can be ascertained using the following assay. C3H10T1/2 cells differentiate into osteoblasts when contacted with the sonic hedgehog peptide (Shh-N). Upon differentiation, these osteoblasts produce high levels of alkaline phosphatase (AP) which can be measured in an enzymatic assay (Nakamura et al., 1997 BBRC 237: 465). Compounds that block the differentiation of C3H10T1/2 into osteoblasts (a Shh dependent event) can therefore be identified by a reduction in AP production (van der Horst et al., 2003 Bone 33: 899). The assay details are described below. Additional assays to ascertain the activity of hedgehog inhibitors, including IPI-926, are described in US 2009/0181997 by Grayzel et al.; U.S. Ser. No. 61/327,373 and 61/331,365, filed on Apr. 23, 2010 and May 4, 2010, respectively; the entire contents of the aforesaid applications are incorporated herein by reference. […]\nC3H10T1/2 cells were plated in 96 wells with a density of 8×10^3 cells/well. […] After incubating for 30 min at 37° C., the plates were read on an Envision plate reader at 405 nm. Total protein was quantified with a BCA protein assay kit from Pierce according to manufacturer's instructions. […]"}, "[4]": {"tested_on": "LuCaP35V (Castration Resistant) primary prostate cancer", "assay": "LuCaP35V castration resistant primary prostate cancer model", "type": "in vivo", "conditions": "docetaxel IV Q14D for 28 days, docetaxel+vehicle samples", "excerpt": "The effects of IPI-926 were examined following docetaxel chemotherapy in a model of castration resistant prostate cancer. Prostate cancer is known to be a highly desmoplastic cancer, and one that preferentially metastasizes to bone. Sonic hedgehog ligand is expressed in clinical specimens and primary xenograft models. […] FIG. 7 summarizes the effects of IPI-926 in LuCaP35V (Castration Resistant) primary prostate cancer model. Days of docetaxel and IPI-926 administration are indicated by the arrowheads at the indicated days post-implant. The following samples were tested: Vehicle control (administered orally once a day), 40 mg/kg of IPI-926 (administered orally once a day), docetaxel (administered intravenously Q14D for 28 days), or docetaxel (administered intravenously Q14D for 28 days) followed by 40 mg/kg of IPI-926, as shown in FIG. 7. […] Thus, IPI-926 can be useful as maintenance therapy in prostate cancer."}, "[5]": {"tested_on": "Ptch1+/-; p53-/- medulloblastoma", "conditions": "cited from earlier work"}},
  "note": "Structures can show the parent of a compound that is named as a salt.",
  "data": [
    {"molecule": "COc1cccc2c1C(=O)c1c(O)c3c(c(O)c1C2=O)C[C@@](O)(C(=O)CO)C[C@@H]3O[C@H]1C[C@H](N)[C@H](O)[C@H](C)O1", "note": "[Doxorubicin]", "values": [
      {"measurement": "Sonic Hedgehog (SHH) ligand expression", "setting": "[1]", "result": "increase in expression over time"}
    ]},
    {"molecule": "CS(=O)(=O)c1ccc(C(=O)Nc2ccc(Cl)c(-c3ccccn3)c2)c(Cl)c1", "note": "[GDC-0449]", "values": [
      {"measurement": "Pgp substrate", "setting": "[2]", "result": "p-glycoprotein (Pgp) substrate"}
    ]},
    {"molecule": "Nc1ccn([C@@H]2O[C@H](CO)[C@@H](O)C2(F)F)c(=O)n1", "note": "[Gemcitabine]", "values": [
      {"measurement": "Sonic Hedgehog (SHH) ligand expression", "setting": "[1]", "result": "increase in expression over time"}
    ]},
    {"molecule": "CC1=C2C[C@H]3[C@@H](CC[C@@H]4C[C@H](NS(C)(=O)=O)CC[C@@]43C)[C@@H]2CC[C@@]2(C1)O[C@@H]1C[C@H](C)CN[C@H]1[C@H]2C", "note": "[IPI-926 (HCl salt)]", "values": [
      {"measurement": "IC50", "setting": "[3]", "result": "< 20", "unit": "nM"}
    ]},
    {"molecule": "CC(=O)O[C@@]12CO[C@@H]1C[C@H](O)[C@@]1(C)C(=O)[C@H](O)C3=C(C)[C@@H](OC(=O)[C@H](O)[C@@H](NC(=O)OC(C)(C)C)c4ccccc4)C[C@@](O)([C@@H](OC(=O)c4ccccc4)[C@H]21)C3(C)C", "note": "[docetaxel, reference compound]", "values": [
      {"measurement": "tumor volume after cessation of docetaxel", "setting": "[4]", "result": "Tumor reoccurrence was detected"}
    ]},
    {"molecule": "HhAntag", "values": [
      {"measurement": "survival vs vehicle", "setting": "[5]; 100 mg/kg, enrolled at 5 weeks of age", "result": "survival benefit"},
      {"measurement": "tumor mass", "setting": "[5]; 2 weeks of twice daily 20 mg/kg or 100 mg/kg, enrolled at 3 weeks of age", "result": "substantial decrease in tumor mass"}
    ]}
  ]
}
